Experimental data as given in PubChem BioAssay AID2060343 (Molecular Pharmacology Branch, DTP, NCI, 2025).
Several values for one entry are separate records, joined by “and”; a condition that tells them apart may be missing. Identical values can stand only once.

System: 138582-337-R-J1-PDC spheroids with HUVEC/MSC, viability
Assay: Anticancer human tumor 138582-337-R-J1-PDC patient-derived Merkel cell tumor cell line growth inhibition [IpAb]
Details: for viability, T/C: stronger effect = lower value
Method in brief: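 Combinations with ipatasertib or abemaciclib were tested on tumour spheroids holding HUVEC (25%) and MSC (15%) alongside 60% malignant cells. Top concentration was at or near clinical Cmax (10 microM if undefined), descending in half-log steps.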

[1] = curve of first compound, second compound 0.01 µM
[2] = curve of first compound, second compound 0.0316 µM
[3] = curve of first compound, second compound 0.1 µM
[4] = curve of first compound, second compound 0.316 µM
[5] = curve of first compound, second compound 1 µM
[6] = second compound 0.1 µM, first compound 0.000316 µM
[7] = second compound 0.1 µM, first compound 0.001 µM
[8] = second compound 0.1 µM, first compound 0.00316 µM
[9] = second compound 0.1 µM, first compound 0.01 µM
[10] = second compound 0.1 µM, first compound 0.0316 µM
[11] = second compound 0.1 µM, first compound 0.1 µM
[12] = second compound 0.316 µM, first compound 0.000316 µM
[13] = second compound 0.316 µM, first compound 0.001 µM
[14] = second compound 0.316 µM, first compound 0.00316 µM
[15] = second compound 0.316 µM, first compound 0.01 µM
[16] = second compound 0.316 µM, first compound 0.0316 µM
[17] = second compound 0.316 µM, first compound 0.1 µM
[18] = second compound 1 µM, first compound 0.000316 µM
[19] = second compound 1 µM, first compound 0.001 µM
[20] = second compound 1 µM, first compound 0.00316 µM
[21] = second compound 1 µM, first compound 0.01 µM
[22] = second compound 1 µM, first compound 0.0316 µM
[23] = second compound 1 µM, first compound 0.1 µM
[24] = curve of first compound, second compound 3.16 µM
[25] = curve of first compound, second compound 10 µM
[26] = second compound 3.16 µM, first compound 0.0316 µM
[27] = second compound 3.16 µM, first compound 0.1 µM
[28] = second compound 10 µM, first compound 0.0316 µM
[29] = second compound 10 µM, first compound 0.1 µM
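Note: spheroids exposed to compounds for seven days.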
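Throughout, for viability, T/C: 100% = DMSO vehicle control viability.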

SMILES: Cn1ncnc1[C@H]1c2n[nH]c(=O)c3cc(F)cc(c23)N[C@@H]1c1ccc(F)cc1 + CCN1CCN(Cc2ccc(Nc3ncc(F)c(-c4cc(F)c5nc(C)n(C(C)C)c5c4)n3)nc2)CC1
- IC50 [1]: > 100 nM
- IC50 [2]: > 100 nM
- IC50 [3]: > 100 nM
- IC50 [4]: > 100 nM
- IC50 [5]: > 100 nM
- viability, T/C (second compound 0.01 µM, first compound 0.000316 µM): 102%
- viability, T/C (second compound 0.01 µM, first compound 0.001 µM): 93.4%
- viability, T/C (second compound 0.01 µM, first compound 0.00316 µM): 91.8%
- viability, T/C (second compound 0.01 µM, first compound 0.01 µM): 80.7%
- viability, T/C (second compound 0.01 µM, first compound 0.0316 µM): 78.5%
- viability, T/C (second compound 0.01 µM, first compound 0.1 µM): 78.9%
- viability, T/C (second compound 0.0316 µM, first compound 0.000316 µM): 96.3%
- viability, T/C (second compound 0.0316 µM, first compound 0.001 µM): 102%
- viability, T/C (second compound 0.0316 µM, first compound 0.00316 µM): 89.5%
- viability, T/C (second compound 0.0316 µM, first compound 0.01 µM): 76.5%
- viability, T/C (second compound 0.0316 µM, first compound 0.0316 µM): 69.8%
- viability, T/C (second compound 0.0316 µM, first compound 0.1 µM): 66.2%
- viability, T/C [6]: 89.7%
- viability, T/C [7]: 89.4%
- viability, T/C [8]: 76.7%
- viability, T/C [9]: 78.4%
- viability, T/C [10]: 90.8%
- viability, T/C [11]: 86.4%
- viability, T/C [12]: 85%
- viability, T/C [13]: 95.8%
- viability, T/C [14]: 87.2%
- viability, T/C [15]: 80.3%
- viability, T/C [16]: 78.3%
- viability, T/C [17]: 72.4%
- viability, T/C [18]: 99%
- viability, T/C [19]: 95.7%
- viability, T/C [20]: 87.3%
- viability, T/C [21]: 79.5%
- viability, T/C [22]: 90.9%
- viability, T/C [23]: 91.2%

SMILES: CC(C)(C)c1cnc(CSc2cnc(NC(=O)C3CCNCC3)s2)o1 + CCN1CCN(Cc2ccc(Nc3ncc(F)c(-c4cc(F)c5nc(C)n(C(C)C)c5c4)n3)nc2)CC1
- IC50 [1]: 145 nM
- IC50 [2]: 124 nM
- IC50 [3]: 120 nM
- IC50 [4]: 99.5 nM
- IC50 [5]: 67.7 nM
- viability, T/C (second compound 0.01 µM, first compound 0.00949 µM): 107%
- viability, T/C (second compound 0.01 µM, first compound 0.03 µM): 109%
- viability, T/C (second compound 0.01 µM, first compound 0.0949 µM): 79%
- viability, T/C (second compound 0.01 µM, first compound 0.3 µM): 0.85%
- viability, T/C (second compound 0.01 µM, first compound 0.949 µM): 0.5%
- viability, T/C (second compound 0.01 µM, first compound 3 µM): 0.66%
- viability, T/C (second compound 0.0316 µM, first compound 0.00949 µM): 96.7%
- viability, T/C (second compound 0.0316 µM, first compound 0.03 µM): 103%
- viability, T/C (second compound 0.0316 µM, first compound 0.0949 µM): 64.9%
- viability, T/C (second compound 0.0316 µM, first compound 0.3 µM): 0.68%
- viability, T/C (second compound 0.0316 µM, first compound 0.949 µM): 0.35%
- viability, T/C (second compound 0.0316 µM, first compound 3 µM): 0.65%
- viability, T/C (second compound 0.1 µM, first compound 0.00949 µM): 91.6%
- viability, T/C (second compound 0.1 µM, first compound 0.03 µM): 91.3%
- viability, T/C (second compound 0.1 µM, first compound 0.0949 µM): 62.4%
- viability, T/C (second compound 0.1 µM, first compound 0.3 µM): 0.43%
- viability, T/C (second compound 0.1 µM, first compound 0.949 µM): 0.5%
- viability, T/C (second compound 0.1 µM, first compound 3 µM): 0.5%
- viability, T/C (second compound 0.316 µM, first compound 0.00949 µM): 92.9%
- viability, T/C (second compound 0.316 µM, first compound 0.03 µM): 96.5%
- viability, T/C (second compound 0.316 µM, first compound 0.0949 µM): 52.1%
- viability, T/C (second compound 0.316 µM, first compound 0.3 µM): 0.57%
- viability, T/C (second compound 0.316 µM, first compound 0.949 µM): 0.45%
- viability, T/C (second compound 0.316 µM, first compound 3 µM): 0.7%
- viability, T/C (second compound 1 µM, first compound 0.00949 µM): 88.7%
- viability, T/C (second compound 1 µM, first compound 0.03 µM): 94.7%
- viability, T/C (second compound 1 µM, first compound 0.0949 µM): 32.7%
- viability, T/C (second compound 1 µM, first compound 0.3 µM): 0.63%
- viability, T/C (second compound 1 µM, first compound 0.949 µM): 0.5%
- viability, T/C (second compound 1 µM, first compound 3 µM): 0.78%

SMILES: C=CC(=O)N1CCN(c2nc(=O)n(-c3c(C)ccnc3C(C)C)c3nc(-c4c(O)cccc4F)c(F)cc23)C(C)C1 (centres undefined)
- viability, T/C (compound 0.0316 µM): 101% and 99.3%
- viability, T/C (compound 0.1 µM): 104% and 97%
- viability, T/C (compound 0.316 µM): 113% and 121%
- viability, T/C (compound 1 µM): 120% and 108%
- viability, T/C (compound 3.16 µM): 149% and 144%
- viability, T/C (compound 10 µM): 187% and 181%
- IC50 (curve of compound): > 10000 nM

SMILES: Cn1nccc1Nc1nccc(-c2ccn(C(CO)c3ccc(Cl)c(F)c3)c(=O)c2)n1 (centres undefined)
- viability, T/C (compound 0.0316 µM): 96.2% and 97.2%
- viability, T/C (compound 0.1 µM): 94.1% and 93.3%
- viability, T/C (compound 0.316 µM): 106% and 92.3%
- viability, T/C (compound 1 µM): 109% and 104%
- viability, T/C (compound 3.16 µM): 124% and 111%
- viability, T/C (compound 10 µM): 132% and 127%
- IC50 (curve of compound): > 10000 nM

SMILES: Cn1ncnc1[C@H]1c2n[nH]c(=O)c3cc(F)cc(c23)N[C@@H]1c1ccc(F)cc1 + CC(C)NCC(C(=O)N1CCN(c2ncnc3c2C(C)CC3O)CC1)c1ccc(Cl)cc1
- IC50 [3]: > 100 nM
- IC50 [4]: > 100 nM
- IC50 [5]: > 100 nM
- IC50 [24]: > 100 nM
- IC50 [25]: < 0.316 nM
- viability, T/C [6]: 99.1%
- viability, T/C [7]: 83%
- viability, T/C [8]: 89.1%
- viability, T/C [9]: 78.3%
- viability, T/C [10]: 78.6%
- viability, T/C [11]: 82.9%
- viability, T/C [12]: 69.7%
- viability, T/C [13]: 81.8%
- viability, T/C [14]: 64.5%
- viability, T/C [15]: 70.9%
- viability, T/C [16]: 72%
- viability, T/C [17]: 74%
- viability, T/C [18]: 72.8%
- viability, T/C [19]: 64.2%
- viability, T/C [20]: 68%
- viability, T/C [21]: 72.7%
- viability, T/C [22]: 74.2%
- viability, T/C [23]: 62%
- viability, T/C (second compound 3.16 µM, first compound 0.000316 µM): 58.1%
- viability, T/C (second compound 3.16 µM, first compound 0.001 µM): 67.6%
- viability, T/C (second compound 3.16 µM, first compound 0.00316 µM): 59.2%
- viability, T/C (second compound 3.16 µM, first compound 0.01 µM): 55.2%
- viability, T/C [26]: 51.3%
- viability, T/C [27]: 54.8%
- viability, T/C (second compound 10 µM, first compound 0.000316 µM): 38.2%
- viability, T/C (second compound 10 µM, first compound 0.001 µM): 46.7%
- viability, T/C (second compound 10 µM, first compound 0.00316 µM): 42.4%
- viability, T/C (second compound 10 µM, first compound 0.01 µM): 39.2%
- viability, T/C [28]: 38.9%
- viability, T/C [29]: 40.2%

SMILES: Cc1nc(NC(=O)N2CCCC2C(N)=O)sc1-c1ccnc(C(C)(C)C(F)(F)F)c1 (centres undefined) + CC(C)NCC(C(=O)N1CCN(c2ncnc3c2C(C)CC3O)CC1)c1ccc(Cl)cc1
- IC50 [3]: 1490 nM
- IC50 [4]: 961 nM
- IC50 [5]: 704 nM
- IC50 [24]: < 31.6 nM
- IC50 [25]: < 31.6 nM
- viability, T/C [10]: 93.4%
- viability, T/C [11]: 77.3%
- viability, T/C (second compound 0.1 µM, first compound 0.316 µM): 67.5%
- viability, T/C (second compound 0.1 µM, first compound 1 µM): 52.8%
- viability, T/C (second compound 0.1 µM, first compound 3.16 µM): 47.6%
- viability, T/C (second compound 0.1 µM, first compound 10 µM): 22.7%
- viability, T/C [16]: 81.3%
- viability, T/C [17]: 71.7%
- viability, T/C (second compound 0.316 µM, first compound 0.316 µM): 63.1%
- viability, T/C (second compound 0.316 µM, first compound 1 µM): 42.7%
- viability, T/C (second compound 0.316 µM, first compound 3.16 µM): 45.7%
- viability, T/C (second compound 0.316 µM, first compound 10 µM): 16.4%
- viability, T/C [22]: 67.2%
- viability, T/C [23]: 60.4%
- viability, T/C (second compound 1 µM, first compound 0.316 µM): 59.5%
- viability, T/C (second compound 1 µM, first compound 1 µM): 43.5%
- viability, T/C (second compound 1 µM, first compound 3.16 µM): 36.4%
- viability, T/C (second compound 1 µM, first compound 10 µM): 14.2%
- viability, T/C [26]: 49.9%
- viability, T/C [27]: 43.9%
- viability, T/C (second compound 3.16 µM, first compound 0.316 µM): 44.9%
- viability, T/C (second compound 3.16 µM, first compound 1 µM): 35.7%
- viability, T/C (second compound 3.16 µM, first compound 3.16 µM): 27.1%
- viability, T/C (second compound 3.16 µM, first compound 10 µM): 5.2%
- viability, T/C [28]: 40.5%
- viability, T/C [29]: 40%
- viability, T/C (second compound 10 µM, first compound 0.316 µM): 32.9%
- viability, T/C (second compound 10 µM, first compound 1 µM): 25.7%
- viability, T/C (second compound 10 µM, first compound 3.16 µM): 15.2%
- viability, T/C (second compound 10 µM, first compound 10 µM): 1.06%
